Measured values from patent US11136311B2, “Heteroaromatic derivatives as NIK inhibitors” (Janssen Pharmaceutica NV, priority 2016, dated 2021).
Like-named read-outs stand apart in the source and are kept apart here.

Key:
JJN-3 cells = experiment: Antiproliferative activity on JJN-3 (NIK translocated) multiple myeloma cells (CellTiter-Glo); format: cell-based, human; details: JJN-3 (NIK translocated) cells, 96 hr, averaged values, read-out: JJN-3 Proliferation inhibition (IC50 (nM))
Procedure: (§1) Determination of antiproliferative activity on JJN-3 (NIK translocated) and KMS12-BM (NIK WT) multiple myeloma cells
(§2) All compounds tested were dissolved in DMSO and further dilutions were made in culture medium. Final DMSO concentration was 0.3% (v/v) in cell proliferation assays. Viability was assessed using CellTiter-Glo cell viability assay kit (Promega). The human JJN-3 and KMS12-BM cells (DSMZ) were cultured in RPMI 1640 medium supplemented with 2 mM L-glutamine, and 10% fetal calf serum (PAA). Cells were routinely kept as suspension cells at 37° C. in a humidified 5% CO2 atmosphere. Cells were passaged at a seeding density of 0.2×10^6/ml twice a week. Cells were seeded in black tissue culture treated 96-well plates (Perkin Elmer). Densities used for plating ranged from 15000 (JJN3) to 20000 (KMS12BM) cells per well in a total volume of 135 μl medium. Drugs and/or solvents were added (15 μl) to a final volume of 150 μl. Following 96 hr of treatment, plates were removed from the incubator and allowed to equilibrate to room temperature for approx 10 min. 75 μl CellTiter-Glo reagent was added to each well that was then covered (Perkin Elmer Topseal) and shaken on plate shaker for 10 min. Luminescence was measured on a HTS Topcount (Perkin Elmer). Within an experiment, the results for each treatment were the mean of 2 replicate wells. For initial screening purposes, compounds were tested using a 9 point dilution curve (serial 1:3 dilutions). For each experiment, controls (containing no drug) and a blank incubation (containing cells read at the time of compound addition) were run in parallel. The blank value was subtracted from all control and sample values. For each sample, the mean value for cell growth (in relative light units) was expressed as a percentage of the mean value for cell growth of the control.

KMS12-BM cells = experiment: Antiproliferative activity on KMS12-BM (NIK WT) multiple myeloma cells (CellTiter-Glo); format: cell-based, human; details: KMS12-BM (NIK WT) cells, 96 hr, averaged values, read-out: KMS-12 Proliferation inhibition (IC50 (nM))
Procedure: as §1, §2

[1] = target: recombinant human NF-kappaB-inducing kinase (NIK/MAP3K14) (Homo sapiens (Human), UniProt Q99558); experiment: Inhibition of auto-phosphorylation of recombinant human NIK/MAP3K14 activity (AlphaScreen); format: biochemical; details: averaged values over all measurements on all batches
Sequence of recombinant human NF-kappaB-inducing kinase (NIK/MAP3K14) (Q99558 whole entry): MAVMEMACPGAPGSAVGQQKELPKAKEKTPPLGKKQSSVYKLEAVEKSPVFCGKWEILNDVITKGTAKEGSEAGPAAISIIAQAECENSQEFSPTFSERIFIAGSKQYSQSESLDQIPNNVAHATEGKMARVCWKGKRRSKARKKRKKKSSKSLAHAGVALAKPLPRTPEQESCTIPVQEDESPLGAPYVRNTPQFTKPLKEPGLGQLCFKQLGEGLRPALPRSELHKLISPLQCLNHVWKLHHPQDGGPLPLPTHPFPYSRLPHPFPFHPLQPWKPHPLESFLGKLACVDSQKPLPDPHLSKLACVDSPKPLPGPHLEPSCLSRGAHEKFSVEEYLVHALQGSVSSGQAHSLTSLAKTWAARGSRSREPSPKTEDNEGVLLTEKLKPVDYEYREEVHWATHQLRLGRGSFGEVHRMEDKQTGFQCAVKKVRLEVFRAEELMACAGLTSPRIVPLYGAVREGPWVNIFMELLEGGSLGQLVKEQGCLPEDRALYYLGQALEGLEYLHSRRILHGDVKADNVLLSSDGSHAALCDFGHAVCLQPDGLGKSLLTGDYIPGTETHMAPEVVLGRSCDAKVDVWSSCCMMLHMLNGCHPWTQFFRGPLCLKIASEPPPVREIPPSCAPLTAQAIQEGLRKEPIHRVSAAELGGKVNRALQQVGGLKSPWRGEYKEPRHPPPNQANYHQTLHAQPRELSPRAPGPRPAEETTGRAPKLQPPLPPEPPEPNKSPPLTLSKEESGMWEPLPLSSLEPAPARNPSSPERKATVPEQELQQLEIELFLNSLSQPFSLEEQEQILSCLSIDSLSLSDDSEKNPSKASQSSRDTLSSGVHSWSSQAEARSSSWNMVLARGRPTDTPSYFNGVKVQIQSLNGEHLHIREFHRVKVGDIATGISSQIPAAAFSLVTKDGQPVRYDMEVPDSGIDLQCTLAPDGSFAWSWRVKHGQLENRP
Procedure: Inhibition of auto-phosphorylation of recombinant human NF-kappaB-inducing kinase (NIK/MAP3K14) activity (AlphaScreen®)
NIK/MAP3K14 auto-phosphorylation activity was measured using the AlphaScreen® (αscreen) format (Perkin Elmer). All compounds tested were dissolved in dimethyl sulfoxide (DMSO) and further dilutions were made in assay buffer. Final DMSO concentration was 1% (v/v) in assays. Assay buffer was 50 mM Tris pH 7.5 containing 1 mM EGTA (ethylene glycol tetraacetic acid), 1 mM DTT (dithiothreitol), 0.1 mM Na3VO4, 5 mM MgCl2, 0.01% Tween® 20. Assays were carried out in 384 well Alphaplates (Perkin Elmer). Incubations consisted of compound, 25 microM Adenosine-5′-triphosphate (ATP), and 0.2 nM NIK/MAP3K14. Incubations were initiated by addition of GST-tagged NIK/MAP3K14 enzyme, carried out for 1 h at 25° C. and terminated by addition of stop buffer containing anti-phospho-IKK Ser176/180 antibody. Protein A Acceptor and Glutathione-Donor beads were added before reading using an EnVision® Multilabel Plate Reader (Perkin Elmer). Signal obtained in the wells containing blank samples was subtracted from all other wells and IC50's were determined by fitting a sigmoidal curve to % inhibition of control versus Log10 compound concentration.

[2] = system: P-IKKα levels in L363 cells; experiment: Effect of compounds on P-IKKα levels in L363 (NIK translocated multiple myeloma) cells; format: cell-based, human; details: averaged values, read-out: Inhibition of pIKKα_L-363 (IC50 (nM))
Procedure: Effect of compounds on P-IKKα levels in L363 (NIK translocated multiple myeloma) cells
All compounds tested were dissolved in DMSO and further dilutions were made in culture medium. Final DMSO concentration was 1% (v/v) in cell assays. The human L363 cells (ATCC) were cultured in RPMI 1640 medium supplemented with GlutaMax and 10% fetal calf serum (PAA). Cells were routinely maintained at densities of 0.2×10^6 cells per ml-1×10^6 cells per ml at 37° C. in a humidified 5% CO2 atmosphere. Cells were passaged twice a week splitting back to obtain the low density. Cells were seeded in 96 well plates (Nunc 167008) at 2×10^6 per ml media in a volume of 75 μl per well plus 25 μl 1 μg/ml recombinant human B-cell activating factor (BAFF/BLyS/TNFSF13B). Seeded cells were incubated at 37° C. in a humidified 5% CO2 atmosphere for 24 hr. Drugs and/or solvents were added (20 μl) to a final volume of 120 μl. Following 2 hr treatment plates were removed from the incubator and cell lysis was achieved by the addition of 30 μl 5× lysis buffer followed by shaking on a plate shaker at 4° C. for 10 min. At the end of this incubation lysed cells were centrifuged at 800×g for 20 min at 4° C. and the lysate was assessed for P-IKKα levels by sandwich immuno-assay carried out in anti-rabbit antibody coated Mesoscale plates. Within an experiment, the results for each treatment were the mean of 2 replicate wells. For initial screening purposes, compounds were tested using an 8 point dilution curve (serial 1:3 dilutions). For each experiment, controls (containing MG132 and BAFF but no test drug) and a blank incubation (containing MG132 and BAFF and 10 μM ADS125117, a test concentration known to give full inhibition) were run in parallel. The blank incubation value was subtracted from all control and sample values. To determine the IC50 a sigmoidal curve was fitted to the plot of % inhibition of control P-IKKα levels versus Log10 compound concentration.

[3] = Homo sapiens, L-363, L363 cells

Row | IC50 (JJN-3 cells; Homo sapiens, JJN-3, 96 h) [nM] | IC50 (KMS12-BM cells; Homo sapiens, KMS-12-BM, 96 h) [nM] | IC50 [1] [nM] | IC50 [2, 3] [nM] | IC50 (KMS12-BM cells) [nM] | IC50 (JJN-3 cells) [nM] | IC50 ([2]; L363 cells) [nM] | SMILES
1 |  |  | 6.2 | 1440 |  |  |  | Cc1cc(Nc2nccc(-c3cc(C#N)c4c(c3)[C@@](C)(CO)CN4)n2)n(CC2CCN(C)C(=O)C2)n1 (mixture of isomers) [Compound 171]
2 |  |  | 168 | 3490 |  |  |  | CN1CCOCC1c1cc(Nc2nccc(-c3cc(C#N)c4c(c3)[C@@](C)(CO)CN4)n2)nn1C (mixture of isomers) [Compound 215]
3 | 437 |  | 11 |  | > 10000 |  | 11 | Cc1cc(Nc2nccc(-c3cc(C#N)c4c(c3)[C@@](C)(CO)CN4)n2)n(CC2COCCO2)n1 (single isomer, unassigned) [Compound 84]
4 |  |  | 9.8 |  | ~4900 | 380 | 31 | Cc1cc(Nc2nccc(-c3cc(C#N)c4c(c3)[C@@](C)(CO)CN4)n2)n(CC2COCCO2)n1 (single isomer, unassigned) [Compound 85]
5 |  | 6460 | 8.3 |  |  | 174 | 145 | Cc1cc(Nc2nccc(-c3cc(C#N)c4c(c3)[C@@](C)(CO)CN4)n2)n(CC2CCCN(C)C2)n1 (single isomer, unassigned) [Compound 140]
6 | 209 | > 10000 | 7.9 | 4 |  |  |  | CC(C)n1nc(Nc2nccc(-c3cc(C#N)c4c(c3)C(C)(CO)CN4)n2)cc1C(=O)NC1CCOCC1 (stereo not drawn) [Compound 35]
7 | 134 | 2090 |  | 11 |  |  |  | COCCCn1nc(C)cc1Nc1nccc(-c2cc(C#N)c3c(c2)[C@@](C)(CO)CN3)n1 [Compound 49]
8 | 72 | ~501 | 2 | 5 |  |  |  | Cc1cc(Nc2nccc(-c3cc(C#N)c4c(c3)[C@@](C)(CO)CN4)n2)nn1CC1CCOCC1 [Compound 60]
9 |  |  | 3.8 | 6 | 1860 | 209 |  | Cc1cc(Nc2nccc(-c3cc(C#N)c4c(c3)[C@@](C)(CO)CN4)n2)nn1CC1CCCCO1 (stereo partly drawn) [Compound 70]
10 |  |  | 107 | 4470 |  |  |  | Cn1ncc(Nc2nccc(-c3cc(C#N)c4c(c3)[C@@](C)(CO)CN4)n2)c1C(=O)N1CCCC1 [Compound 191]
11 |  |  | 25.1 | 91 |  |  |  | Cn1ncc(Nc2nccc(-c3cc(C#N)c4c(c3)[C@@](C)(CO)CN4)n2)c1OC1COC1 [Compound 193]
12 |  |  | 15.5 | 93 |  |  |  | CC(C)Oc1nn(CCN2CCOCC2)cc1Nc1nccc(-c2cc(C#N)c3c(c2)[C@@](C)(CO)CN3)n1 [Compound 207]
13 |  |  | 18.6 | 2630 |  |  |  | Cc1cc(Nc2nccc(-c3cc(C#N)c4c(c3)[C@@](C)(CO)CN4)n2)n(CC2CCN(CC(=O)O)CC2)n1 [Compound 214]
14 | 214 |  | 9.5 | 100 |  |  |  | CNC(=O)c1cc(Nc2nccc(-c3cc(C#N)c4c(c3)[C@@](C)(CO)CN4)n2)n(CC(C)C)n1 [Compound 219]
15 |  |  | 12 | 15 |  |  |  | Cn1ccc(Nc2nccc(-c3cc(C#N)c4c(c3)[C@@](C)(CN)CN4)n2)n1 [Compound 222]

More lines, now with the values behind:

Row | SMILES | IC50 (JJN-3 cells; Homo sapiens, JJN-3, 96 h) [nM] | IC50 (KMS12-BM cells; Homo sapiens, KMS-12-BM, 96 h) [nM] | IC50 [1] [nM] | IC50 [2, 3] [nM] | IC50 (KMS12-BM cells) [nM] | IC50 (JJN-3 cells) [nM] | IC50 ([2]; L363 cells) [nM]
16 | Cc1cc(Nc2nccc(-c3cc(C#N)c4c(c3)[C@@](C)(CO)CN4)n2)n(CC2CCCOC2)n1 (mixture of isomers) [Compound 94] | 178 | 4170 | 5.6 | 7 |  |  | 
17 | Cc1cc(Nc2nccc(-c3cc(C#N)c4c(c3)[C@@](C)(CO)CN4)n2)n(CC2CCn3ccnc3C2)n1 (mixture of isomers) [Compound 202] |  |  | 7.2 | 1950 |  |  | 
18 | Cc1cc(Nc2nccc(-c3cc(C#N)c4c(c3)[C@@](C)(CO)CN4)n2)n(CC2CCOC2)n1 (single isomer, unassigned) [Compound 81] | 195 |  | 4.3 | 11 | 851 |  | 
19 | Cc1cc(Nc2nccc(-c3cc(C#N)c4c(c3)[C@@](C)(CO)CN4)n2)n(CC2CCOC2)n1 (single isomer, unassigned) [Compound 82] |  |  | ~5 |  | 380 | 182 | 13
20 | Cc1cc(Nc2nccc(-c3cc(C#N)c4c(c3)[C@@](C)(CO)CN4)n2)n(CC2CCCN(C)C2)n1 (single isomer, unassigned) [Compound 141] |  |  | 42 |  | > 10000 | 79 | 813
21 | Cc1nn(C)cc1Nc1nccc(-c2cc(C#N)c3c(c2)C(C)(CO)CN3)n1 (stereo not drawn) [Compound 7] | 112 | ~1740 |  | 2 |  |  | 
22 | COCCn1nc(C)cc1Nc1nccc(-c2cc(C#N)c3c(c2)[C@@](C)(CO)CN3)n1 [Compound 42] | 398 | 5980 | 4.2 | 68 |  |  | 
23 | Cc1cc(Nc2nccc(-c3cc(C#N)c4c(c3)[C@@](C)(CO)CN4)n2)nn1CC1CCCCO1 (stereo partly drawn) [Compound 71] |  |  | 2.8 |  | 813 | 102 | 4
24 | CN(C)C(=O)Cn1nc(Cl)cc1Nc1nccc(-c2cc(C#N)c3c(c2)[C@@](C)(CO)CN3)n1 [Compound 116] |  |  | 9.3 | 269 |  |  | 
25 | C[C@]1(CO)CNc2c(C#N)cc(-c3ccnc(Nc4cn(CC(F)F)nc4C(=O)N4CCCC4)n3)cc21 [Compound 189] |  |  | 17 | 51 |  |  | 
26 | CNC(=O)c1c(Nc2nccc(-c3cc(C#N)c4c(c3)[C@@](C)(CO)CN4)n2)cnn1C [Compound 190] |  |  | 11.7 | 110 |  |  | 
27 | Cc1cc(Nc2nccc(-c3cc(C#N)c4c(c3)[C@@](C)(CO)CN4)n2)n(CC(=O)N(C)C)n1 [Compound 206] |  |  | 2.9 | 31 |  |  | 
28 | CN1CCN(Cc2c(Nc3nccc(-c4cc(C#N)c5c(c4)[C@@](C)(CO)CN5)n3)cnn2C)CC1 [Compound 209] |  |  | 28.2 | 141 |  |  | 
29 | CC(C)n1nc(C(=O)N(C)C2CC2)cc1Nc1nccc(-c2cc(C#N)c3c(c2)[C@@](C)(CO)CN3)n1 [Compound 211] |  |  | 14.8 | 204 |  |  | 
30 | Cn1ccc(Nc2nccc(-c3cc(C#N)c4c(c3)[C@](C)(CN)CN4)n2)n1 [Compound 223] |  |  | 224 |  |  |  | 269
